For 63 compounds, EC50 results are on record in US12037333B2, “Pyridopyrazine and pyridotriazine inhibitors of influenza virus replication” (priority 2018, dated 2024).

What is called EC50 is the concentration at which the effect is half-maximal. Low readings indicate an effect from little substance, high ones a need for much substance.

One assay relates to Influenza type A (strain A/PR/8/34, ATCC VR-95). In words: Influenza antiviral assay: inhibition of virus-induced cytopathic effects (CPE) in MDCK cells, XTT dye reduction. The format is cell-based. Conditions: Influenza A (H1N1), strain A/PR/8/34, MDCK cells, CPE inhibition at 4 days. On the technique in general: Damage to the host cells serves as the signal in cytopathic effect assays.
For the compound `CN1CN(C23c4ccccc4CC2Cc2c3ccc(F)c2Cl)n2ccc(=O)c(O)c2C1=O` (stereo not drawn) [Compound A90], the half-maximal effective concentration (EC50) is 125 to 250 nM. Compound `O=C1c2c(O)c(=O)ccn2N(C23c4ccccc4CC2Cc2c(Cl)cccc23)CN1CCF` (stereo not drawn) [Compound A114] returned an EC50 of 125 to 250 nM. The same measure, in the same setting: the result for `CC1N(CC(F)F)C(=O)c2c(O)c(=O)ccn2N1C12c3ccccc3CC1Cc1c2ccc(F)c1F` (stereo not drawn) [Compound A136] reads 375 to 500 nM; that for `CC1N(CC(F)F)C(=O)c2c(O)c(=O)ccn2N1C12c3ccccc3CC1Cc1c2ccc(F)c1F` (stereo not drawn) [Compound A137], 125 to 250 nM.

The same assay, now with this note: Influenza A virus, H1N1 / PR/8, MDCK, 96 h, strain A/PR/8/34, MDCK cells, CPE inhibition at 4 days.
`O=C1c2c(O)c(=O)ccn2N(C23c4cccc(F)c4CC2Cc2c(F)cccc23)CN1CCc1ccccc1` (stereo not drawn) [Compound A86] displayed an EC50 of 125 to 250 nM. Same read-out and setting: the result for `O=C1c2c(O)c(=O)ccn2N(C23c4ccccc4CC2Cc2c(F)cccc23)CN1CCc1ccccc1` (stereo not drawn) [Compound A87] reads 125 to 250 nM; that for `CC(C)N1CN(C23c4cccc(F)c4CC2(C)Cc2c(F)cccc23)n2ccc(=O)c(O)c2C1=O` (stereo not drawn) [Compound A89], 125 to 250 nM. Still for that read-out and setting: the result for `CC(CCN1CN(C23c4ccccc4CC2Cc2c3ccc(F)c2F)n2ccc(=O)c(O)c2C1=O)c1ccccc1` (stereo not drawn) [Compound A91] reads more than 500 nM. In the case of `O=C1c2c(O)c(=O)ccn2N(C23c4ccccc4CC2Cc2c3ccc(F)c2F)CN1C1CCC1` (stereo not drawn) [Compound A92, 3-Cyclobutyl-1-(1,2-difluoro-9a,10-dihydroindeno[1,2-a]inden-4b(9H)-yl)-5-hydroxy-2,3-dihydro-1H-pyrido[2,1-f][1,2,4]triazine-4,6-dione], the EC50 is 250 to 375 nM. In the case of `O=C1c2c(O)c(=O)ccn2N(C23c4ccccc4CC2Cc2c(Cl)cccc23)CN1C1CC1` (stereo not drawn) [Compound A93], the EC50 was in the range of 125 to 250 nM. In turn, `CC1N(C)C(=O)c2c(O)c(=O)ccn2N1C12c3ccccc3CC1Cc1c(Cl)cccc12` (stereo not drawn) [Compound A94] gave an EC50 of 250 to 375 nM. On the same count and under the same terms, then `CCN1C(=O)c2c(O)c(=O)ccn2N(C23c4ccccc4CC2Cc2c(Cl)cccc23)C1C` (stereo not drawn) [Compound A95], with 125 to 250 nM; and `CN1CN(C23c4cc(F)ccc4CC2Cc2c(Cl)cccc23)n2ccc(=O)c(O)c2C1=O` (stereo not drawn) [Compound A96], with less than 125 nM. Still for that read-out and setting: then `CCN1CN(C23c4ccccc4CC2Cc2c3ccc(C)c2F)n2ccc(=O)c(O)c2C1=O` (stereo not drawn) [Compound A98], with 250 to 375 nM; and `O=C1c2c(O)c(=O)ccn2N(C23c4ccccc4CC2Cc2c3ccc(F)c2F)CN1CC1CCCCC1` (stereo not drawn) [Compound A99], with more than 500 nM; and `O=C1c2c(O)c(=O)ccn2N(C23c4ccccc4CC2Cc2c3ccc(F)c2F)CN1CC1CCCC1` (stereo not drawn) [Compound A100], with more than 500 nM. The compound `COCCN1CN(C23c4ccccc4CC2Cc2c(Cl)cccc23)n2ccc(=O)c(O)c2C1=O` (stereo not drawn) [Compound A101] displayed an EC50 of 125 to 250 nM.

`O=C1c2c(O)c(=O)ccn2N(C23c4ccccc4CC2Cc2c(Cl)cccc23)CN1CCCF` (stereo not drawn) [Compound A102] returned an EC50 of 125 to 250 nM.

In the case of `O=C1c2c(O)c(=O)ccn2N(C23c4ccccc4CC2Cc2c(Cl)cccc23)CN1C1CCC1` (stereo not drawn) [Compound A103], the EC50 was in the range of 250 to 375 nM. `O=C1c2c(O)c(=O)ccn2N(C23c4ccccc4CC2Cc2c(Cl)cccc23)CN1CC1CCCC1` (stereo not drawn) [Compound A104] displayed an EC50 of more than 500 nM.

`O=C1c2c(O)c(=O)ccn2N(C23c4ccccc4CC2Cc2c(Cl)cccc23)CN1CC(F)F` (stereo not drawn) [Compound A105] gave an EC50 of less than 125 nM. `CN1C(=O)c2c(O)c(=O)ccn2N(C23C(=Cc4c(F)cccc42)Cc2c(F)cccc23)C1CN` (stereo not drawn) [Compound A106, 2-(aminomethyl)-1-(1,8-difluoroindeno[1,2-a]inden-4b(9H)-yl)-5-hydroxy-3-methyl-2,3-dihydro-1H-pyrido[2,1-f][1,2,4]triazine-4,6-dione] registered an EC50 of 125 to 250 nM.

`CN1C(=O)c2c(O)c(=O)ccn2N(C23c4cccc(F)c4CC2Cc2c(F)cccc23)C1CN` (stereo not drawn) [Compound A107, 2-(aminomethyl)-1-(1,8-difluoro-9a,10-dihydroindeno[1,2-a]inden-4b(9H)-yl)-5-hydroxy-3-methyl-2,3-dihydro-1H-pyrido[2,1-f][1,2,4]triazine-4,6-dione] registered a 50% effective concentration (EC50) of 125 to 250 nM. The same measure, in the same setting: the result for `O=C1c2c(O)c(=O)ccn2N(C23c4ccccc4CC2Cc2c(Cl)cccc23)CN1CC1CC1` (stereo not drawn) [Compound A108] reads 250 to 375 nM.

The compound `COCCN1CN(C23c4ccccc4CC2Cc2ccccc23)n2ccc(=O)c(O)c2C1=O` (stereo not drawn) [Compound A110] gave an EC50 of 125 to 250 nM. On the same count and under the same terms, then `O=C1c2c(O)c(=O)ccn2N(C23c4ccccc4CC2Cc2c(Cl)cccc23)CN1CCF` (stereo not drawn) [Compound A111], with 125 to 250 nM; and `O=C1c2c(O)c(=O)ccn2N(C23c4ccccc4CC2Cc2c(Cl)cccc23)CN1CC1CCC1` (stereo not drawn) [Compound A112], with 375 to 500 nM; and `COCCN1C(=O)c2c(O)c(=O)ccn2N(C23c4ccccc4CC2Cc2c3ccc(F)c2F)C1C` (stereo not drawn) [Compound A113], with 125 to 250 nM. Regarding `CC1N(CCF)C(=O)c2c(O)c(=O)ccn2N1C12c3ccccc3CC1Cc1c(Cl)cccc12` (stereo not drawn) [Compound A115], the EC50 was 375 to 500 nM. Compound `CCN1CN(C23c4ccccc4CC2(C)Cc2cc(F)ccc23)n2ccc(=O)c(O)c2C1=O` (stereo not drawn) [Compound A116] had an EC50 of less than 125 nM. Regarding `CC(C)CN1C(=O)c2c(O)c(=O)ccn2N(C23c4ccccc4CC2Cc2c(F)cccc23)C1C` (stereo not drawn) [Compound A117], the EC50 is more than 500 nM. The same measure, in the same setting: the result for `CC(C)CN1C(=O)c2c(O)c(=O)ccn2N(C23c4ccccc4CC2Cc2c(Cl)cccc23)C1C` (stereo not drawn) [Compound A118] reads more than 500 nM. The same measure, in the same setting: the result for `CC1N(CCF)C(=O)c2c(O)c(=O)ccn2N1C12c3ccccc3CC1Cc1c(F)cccc12` (stereo not drawn) [Compound A121] reads 125 to 250 nM; that for `COCCN1C(=O)c2c(O)c(=O)ccn2N(C23c4ccccc4CC2Cc2c(F)cccc23)C1C` (stereo not drawn) [Compound A124], 375 to 500 nM; that for `COCCN1C(=O)c2c(O)c(=O)ccn2N(C23c4ccccc4CC2Cc2c(Cl)cccc23)C1C` (stereo not drawn) [Compound A125], 250 to 375 nM. Still for that read-out and setting: the result for `CN1CN(C23c4ccccc4CC2(C)Cc2cc(F)ccc23)n2ccc(=O)c(O)c2C1=O` (stereo not drawn) [Compound A126] reads 125 to 250 nM; that for `CC(C)CN1C(=O)c2c(O)c(=O)ccn2N(C23c4ccccc4CC2Cc2c3ccc(F)c2F)C1C` (stereo not drawn) [Compound A127], more than 500 nM. On to `CC1N(CC2CC2)C(=O)c2c(O)c(=O)ccn2N1C12c3ccccc3CC1Cc1c2ccc(F)c1F` (stereo not drawn) [Compound A128], for which the EC50 lay in the range of 250 to 375 nM. Same read-out and setting: then `CC1N(CC2CC2)C(=O)c2c(O)c(=O)ccn2N1C12c3ccccc3CC1Cc1c(F)cccc12` (stereo not drawn) [Compound A129], with 250 to 375 nM; and `O=C1c2c(O)c(=O)ccn2N(C23c4cccc(F)c4CC2Cc2c(F)cccc23)CN1CC1CCCCO1` (stereo not drawn) [Compound A130], with more than 500 nM; and `O=C1c2c(O)c(=O)ccn2N(C23c4ccccc4CC2Cc2c3ccc(F)c2F)CN1CC1CCCCO1` (stereo not drawn) [Compound A131], with 375 to 500 nM.

`CCCN1C(=O)c2c(O)c(=O)ccn2N(C23c4ccccc4CC2Cc2c(Cl)cccc23)C1C` (stereo not drawn) [Compound A132] gave an EC50 of 250 to 375 nM. In turn, `O=C1c2c(O)c(=O)ccn2N(C23c4ccccc4CC2Cc2c(F)cccc23)CN1CC1CCCCO1` (stereo not drawn) [Compound A133] gave an EC50 of 125 to 250 nM. `CCN1C(=O)c2c(O)c(=O)ccn2N(C23c4ccccc4CC2Cc2c(F)cccc23)C1C` (stereo not drawn) [Compound A138] returned an EC50 of 125 to 250 nM. On the same count and under the same terms, the result for `CC1N(CC(F)F)C(=O)c2c(O)c(=O)ccn2N1C12c3ccccc3CC1Cc1c(F)cccc12` (stereo not drawn) [Compound A139] reads 125 to 250 nM; that for `CC1N(CC2CC2)C(=O)c2c(O)c(=O)ccn2N1C12c3ccccc3CC1Cc1c(Cl)cccc12` (stereo not drawn) [Compound A140], 250 to 375 nM.

`CC1N(C2CCC2)C(=O)c2c(O)c(=O)ccn2N1C12c3ccccc3CC1Cc1c(F)cccc12` (stereo not drawn) [Compound A141] gave an EC50 of 375 to 500 nM.

`Cc1cc(CN2CN(C34c5ccccc5CC3Cc3ccccc34)n3ccc(=O)c(O)c3C2=O)no1` (stereo not drawn) [Compound A144] returned an EC50 of less than 125 nM. Same read-out and setting: then `CN1CN(C23c4ccccc4CC2Cc2cccc(F)c23)n2ccc(=O)c(O)c2C1=O` (stereo not drawn) [Compound A145], with less than 125 nM; and `CN1CN(C23c4ccccc4CC2Cc2c3ccc(Cl)c2Cl)n2ccc(=O)c(O)c2C1=O` (stereo not drawn) [Compound A146], with less than 125 nM; and `CCN1CN(C23c4ccccc4CC2(C)Cc2ccccc23)n2ccc(=O)c(O)c2C1=O` (stereo not drawn) [Compound A147], with less than 125 nM. Same read-out and setting: the result for `CCCN1CN(C23c4ccccc4CC2Cc2c3ccc(F)c2F)n2ccc(=O)c(O)c2C1=O` (stereo not drawn) [Compound A148] reads less than 125 nM; that for `CC(C)CN1CN(C23c4ccccc4CC2Cc2c3ccc(F)c2F)n2ccc(=O)c(O)c2C1=O` (stereo not drawn) [Compound A149], less than 125 nM. `CN1CN(C23c4ccccc4CC2(C)Cc2ccccc23)n2ccc(=O)c(O)c2C1=O` (stereo not drawn) [Compound A150] returned an EC50 of less than 125 nM. Same read-out and setting: then `CCN1CN(C23c4cccc(F)c4CC2Cc2c(Cl)cccc23)n2ccc(=O)c(O)c2C1=O` (stereo not drawn) [Compound A151], with less than 125 nM. On the same count and under the same terms, the result for `CCN1CN(C23c4ccccc4CC2(OC)Cc2ccccc23)n2ccc(=O)c(O)c2C1=O` (stereo not drawn) [Compound A152] reads less than 125 nM. Still for that read-out and setting: then `CCCN1CN(C23c4cccc(F)c4CC2Cc2c(F)cccc23)n2ccc(=O)c(O)c2C1=O` (stereo not drawn) [Compound A153], with less than 125 nM; and `CC(C)CN1CN(C23c4cccc(F)c4CC2Cc2c(F)cccc23)n2ccc(=O)c(O)c2C1=O` (stereo not drawn) [Compound A156], with 250 to 375 nM. The compound `CCN1CN(C23c4ccccc4CC2(CC)Cc2ccccc23)n2ccc(=O)c(O)c2C1=O` (stereo not drawn) [Compound A157] had an EC50 of 125 to 250 nM. On to `CC1N(C)C(=O)c2c(O)c(=O)ccn2N1C12c3ccccc3CC1Cc1ccccc12` (stereo not drawn) [Compound A158], for which the EC50 was in the range of 125 to 250 nM. Consider `CN1CN(C23c4ccccc4CC2Cc2c3ccc(Cl)c2F)n2ccc(=O)c(O)c2C1=O` (stereo not drawn) [Compound A160], for which the EC50 is less than 125 nM. On the same count and under the same terms, then `CCN1CN(C23c4ccccc4CC2Cc2c3ccc(Cl)c2Cl)n2ccc(=O)c(O)c2C1=O` (stereo not drawn) [Compound A161], with less than 125 nM; and `CCC12Cc3ccccc3C1(N1CN(C)C(=O)c3c(O)c(=O)ccn31)c1ccccc1C2` (stereo not drawn) [Compound A162], with less than 125 nM.
